# Patent US10669261B2, “Heteroarylhydroxypyrimidinones as agonists of the APJ receptor” (BRISTOL-MYERS SQUIBB COMPANY, priority 2015, dated 2020)
# Target: T1, human APJ receptor (Homo sapiens, UniProt P35414)
# T1 construct: expressed in transfected cells
# T1 sequence (P35414 1-380): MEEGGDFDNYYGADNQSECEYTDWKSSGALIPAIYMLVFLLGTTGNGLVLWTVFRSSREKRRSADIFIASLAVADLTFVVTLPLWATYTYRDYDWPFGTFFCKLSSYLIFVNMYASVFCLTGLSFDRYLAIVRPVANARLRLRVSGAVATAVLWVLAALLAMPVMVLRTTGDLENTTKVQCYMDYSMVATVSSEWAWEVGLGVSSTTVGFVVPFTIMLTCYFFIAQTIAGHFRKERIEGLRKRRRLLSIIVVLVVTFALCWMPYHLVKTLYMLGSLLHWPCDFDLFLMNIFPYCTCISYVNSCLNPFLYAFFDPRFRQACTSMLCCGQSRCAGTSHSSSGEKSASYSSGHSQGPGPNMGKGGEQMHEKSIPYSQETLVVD
# Assay: Intracellular cAMP accumulation assay (APJ hcAMP, HTRF)
# Format: cell-based
# Settings: HEK293 cells stably expressing human APJ receptor; inhibition of forskolin-mediated cAMP production; stated at end of example; read-out: Human APJ cAMP Potency Range
# Protocol: Intracellular cAMP Accumulation Assay
# HEK293 cells stably expressing human APJ receptor were used to assess the activity of compounds. Cultured cells were detached and resuspended in the cAMP Homogeneous Time-Resolved Fluorescence (HTRF) assay buffer (Cisbio cat; #62AM4PEJ). The assay was performed in 384-well assay plates (Perkin-Elmer; cat #6008289) according to assay protocol provided by the manufacturer. Serial dilutions of a compound together with assay buffer containing […] IBMX and 2 μM forskolin were added to each well containing 5,000 cells and incubated for 30 minutes at room temperature. Subsequently, cAMP D2 reagent was added in the lysis buffer followed by the EuK antibody (Cisbio; cat #62AM4PEJ) and incubated for 60 min. The fluorescence emission ratio was measured using fluorometer. The intracellular cAMP concentrations (compound-stimulated inhibition of forskolin-mediated cAMP production) were calculated by extrapolation from a standard curve using known cAMP concentrations. The EC50 values were obtained by fitting the data to a sigmoidal concentration-response curve with variable slope. The maximal achievable inhibition of forskolin-induced cAMP levels (Ymax) for each compound was expressed as relative percentage of inhibition attained using pyroglutamated apelin-13 ((Pyr1)apelin-13) peptide, which was set to 100%.
# The examples disclosed below were tested in the APJ in vitro assays described above and were found having human APJ cyclic AMP (hcAMP) activity. The EC50 value of each compound is presented at the end of the example description.
# The biological activity of the exemplified compounds of this invention determined by the assay described above is shown at the end of each example.
row,Compound,EC50
1,"CCCCc1nc(=O)c(-c2nnc(Cc3noc4ccccc34)o2)c(O)n1-c1c(OC)cccc1OC [Example 1, 5-(5-(benzo[d]isoxazol-3-ylmethyl)-1,3,4-oxadiazol-2-yl)-2-butyl-1-(2,6-dimethoxyphenyl)-6-hydroxypyrimidin-4(1H)-one]",0.01 to 10 nM
2,"CCCCc1nc(=O)c(-c2nnc(Cc3noc4ccccc34)o2)c(O)n1-c1c(OCC)cccc1OCC [Example 23, 5-(5-(Benzo[d]isoxazol-3-ylmethyl)-1,3,4-oxadiazol-2-yl)-2-butyl-1-(2,6-diethoxyphenyl)-6-hydroxypyrimidin-4(1H)-one]",0.01 to 10 nM

# Same assay, conditions: Table 1; HEK293 cells stably expressing human APJ receptor; read-out: hAPJ cAMP EC50 Potency range
row,Compound,EC50
1,"CCCCc1nc(=O)c(-c2nnc(Cc3ccc(Cl)cc3)o2)c(O)n1-c1c(OC)cccc1OC [Example 2, 2-butyl-5-{5-[(4-chlorophenyl)methyl]-1,3,4-oxadiazol-2-yl}-1-(2,6-dimethoxyphenyl)-6-hydroxy-1,4-dihydropyrimidin-4-one]",0.01 to 10 nM
2,"C=CCCc1nc(=O)c(-c2nnc(Cc3noc4ccccc34)o2)c(O)n1-c1c(OC)cccc1OC [Example 3, 5-[5-(1,2-benzoxazol-3-ylmethyl)-1,3,4-oxadiazol-2-yl]-2-(but-3-en-1-yl)-1-(2,6-dimethoxyphenyl)-6-hydroxy-1,4-dihydropyrimidin-4-one]",0.01 to 10 nM
3,"CCCCc1nc(=O)c(-c2nnc(Cc3noc4ccccc34)o2)c(O)n1-c1c(CC)cccc1CC [Example 4, 5-[5-(1,2-benzoxazol-3-ylmethyl)-1,3,4-oxadiazol-2-yl]-2-butyl-1-(2,6-diethylphenyl)-6-hydroxy-1,4-dihydropyrimidin-4-one]",0.01 to 10 nM
4,"CCCCc1nc(=O)c(-c2nnc(Cc3csc(C)n3)o2)c(O)n1-c1c(OC)cccc1OC [Example 5, 2-butyl-1-(2,6-dimethoxyphenyl)-6-hydroxy-5-{5-[(2-methyl-1,3-thiazol-4-yl)methyl]-1,3,4-oxadiazol-2-yl}-1,4-dihydropyrimidin-4-one]",0.01 to 10 nM
5,"CCCCc1nc(=O)c(-c2nnc(Cn3ccccc3=O)o2)c(O)n1-c1c(OC)cccc1OC [Example 6, 2-butyl-1-(2,6-dimethoxyphenyl)-6-hydroxy-5-{5-[(2-oxo-1,2-dihydropyridin-1-yl)methyl]-1,3,4-oxadiazol-2-yl}-1,4-dihydropyrimidin-4-one]",0.01 to 10 nM
6,"COc1cccc(OC)c1-n1c(CCC(C)C)nc(=O)c(-c2nnc(CN3CCCC3=O)o2)c1O [Example 7, 1-(2,6-dimethoxyphenyl)-6-hydroxy-2-(3-methylbutyl)-5-{5-[(2-oxopyrrolidin-1-yl)methyl]-1,3,4-oxadiazol-2-yl}-1,4-dihydropyrimidin-4-one]",0.01 to 10 nM
7,"CCCCc1nc(=O)c(-c2nnc(CN3CCCC3=O)o2)c(O)n1-c1c(OC)cccc1OC [Example 8, 2-butyl-1-(2,6-dimethoxyphenyl)-6-hydroxy-5-{5-[(2-oxopyrrolidin-1-yl)methyl]-1,3,4-oxadiazol-2-yl}-1,4-dihydropyrimidin-4-one]",0.01 to 10 nM
8,"CCCCc1nc(=O)c(-c2nnc(Cc3nc(-c4ccccn4)no3)o2)c(O)n1-c1c(OC)cccc1OC [Example 9, 2-butyl-1-(2,6-dimethoxyphenyl)-6-hydroxy-5-(5-{[3-(pyridin-2-yl)-1,2,4-oxadiazol-5-yl]methyl}-1,3,4-oxadiazol-2-yl)-1,4-dihydropyrimidin-4-one]",0.01 to 10 nM
9,"COc1cccc(OC)c1-n1c(CCC(C)C)nc(=O)c(-c2nnc(Cn3ccccc3=O)o2)c1O [Example 10, 1-(2,6-dimethoxyphenyl)-6-hydroxy-2-(3-methylbutyl)-5-{5-[(2-oxo-1,2-dihydropyridin-1-yl)methyl]-1,3,4-oxadiazol-2-yl}-1,4-dihydropyrimidin-4-one]",0.01 to 10 nM
10,"C=CCCc1nc(=O)c(-c2nnc(Cc3nc(-c4ccccn4)no3)o2)c(O)n1-c1c(OC)cccc1OC [Example 11, 2-(but-3-en-1-yl)-1-(2,6-dimethoxyphenyl)-6-hydroxy-5-(5-{[3-(pyridin-2-yl)-1,2,4-oxadiazol-5-yl]methyl}-1,3,4-oxadiazol-2-yl)-1,4-dihydropyrimidin-4-one]",0.01 to 10 nM
11,"COc1cccc(OC)c1-n1c(CCCC(F)(F)F)nc(=O)c(-c2nnc(Cc3noc4ccccc34)o2)c1O [Example 12, 5-[5-(1,2-benzoxazol-3-ylmethyl)-1,3,4-oxadiazol-2-yl]-1-(2,6-dimethoxyphenyl)-6-hydroxy-2-(4,4,4-trifluorobutyl)-1,4-dihydropyrimidin-4-one]",0.01 to 10 nM
12,"CCCCc1nc(=O)c(-c2nnc(Cc3noc4ccccc34)o2)c(O)n1-c1c(C)cccc1OC [Example 13, 5-[5-(1,2-benzoxazol-3-ylmethyl)-1,3,4-oxadiazol-2-yl]-2-butyl-6-hydroxy-1-(2-methoxy-6-methylphenyl)-1,4-dihydropyrimidin-4-one]",0.01 to 10 nM
13,"C=CCCc1nc(=O)c(-c2nnc(Cc3ccc(Cl)cc3)o2)c(O)n1-c1c(OC)cccc1OC [Example 14, 2-(but-3-en-1-yl)-5-{5-[(4-chlorophenyl)methyl]-1,3,4-oxadiazol-2-yl}-1-(2,6-dimethoxyphenyl)-6-hydroxy-1,4-dihydropyrimidin-4-one]",0.01 to 10 nM
14,"CCCCc1nc(=O)c(-c2nnc(Cc3noc4ccccc34)o2)c(O)n1-c1c(Br)cccc1Br [Example 15, 5-[5-(1,2-benzoxazol-3-ylmethyl)-1,3,4-oxadiazol-2-yl]-2-butyl-1-(2,6-dibromophenyl)-6-hydroxy-1,4-dihydropyrimidin-4-one]",0.01 to 10 nM
15,"COc1cccc(OC)c1-n1c(CCC(C)C)nc(=O)c(-c2nnc(CN3CCOCC3=O)o2)c1O [Example 16, 4-({5-[1-(2,6-dimethoxyphenyl)-6-hydroxy-2-(3-methylbutyl)-4-oxo-1,4-dihydropyrimidin-5-yl]-1,3,4-oxadiazol-2-yl}methyl)morpholin-3-one]",0.01 to 10 nM
16,"C=CCCc1nc(=O)c(-c2nnc(Cc3noc4ccccc34)o2)c(O)n1-c1c(C)cccc1OC [Example 17, 5-[5-(1,2-benzoxazol-3-ylmethyl)-1,3,4-oxadiazol-2-yl]-2-(but-3-en-1-yl)-6-hydroxy-1-(2-methoxy-6-methylphenyl)-1,4-dihydropyrimidin-4-one]",0.01 to 10 nM
17,"CCCCc1nc(=O)c(-c2nnc(Cc3noc4ccccc34)o2)c(O)n1-c1c(OC)ncnc1OC [Example 18, 5-[5-(1,2-benzoxazol-3-ylmethyl)-1,3,4-oxadiazol-2-yl]-2-butyl-1-(4,6-dimethoxypyrimidin-5-yl)-6-hydroxy-1,4-dihydropyrimidin-4-one]",0.01 to 10 nM
18,"CCCCc1nc(=O)c(-c2nnc(Cc3noc4ccccc34)o2)c(O)n1-c1c(Cl)cccc1Cl [Example 19, 5-[5-(1,2-benzoxazol-3-ylmethyl)-1,3,4-oxadiazol-2-yl]-2-butyl-1-(2,6-dichlorophenyl)-6-hydroxy-1,4-dihydropyrimidin-4-one]",0.01 to 10 nM
19,"COc1cccc(OC)c1-n1c(CC2CC2)nc(=O)c(-c2nnc(Cc3noc4ccccc34)o2)c1O [Example 20, 5-[5-(1,2-benzoxazol-3-ylmethyl)-1,3,4-oxadiazol-2-yl]-2-(cyclopropylmethyl)-1-(2,6-dimethoxyphenyl)-6-hydroxy-1,4-dihydropyrimidin-4-one]",0.01 to 10 nM
20,"COc1cccc(OC)c1-n1c(CC2CC2)nc(=O)c(-c2nnc(Cc3ccc(Cl)cc3)o2)c1O [Example 21, 5-{5-[(4-chlorophenyl)methyl]-1,3,4-oxadiazol-2-yl}-2-(cyclopropylmethyl)-1-(2,6-dimethoxyphenyl)-6-hydroxy-1,4-dihydropyrimidin-4-one]",0.01 to 10 nM
21,"COc1cccc(OC)c1-n1c(CC2CC2)nc(=O)c(-c2nnc(Cc3nc(-c4ccccn4)no3)o2)c1O [Example 22, 2-(cyclopropylmethyl)-1-(2,6-dimethoxyphenyl)-6-hydroxy-5-(5-{[3-(pyridin-2-yl)-1,2,4-oxadiazol-5-yl]methyl}-1,3,4-oxadiazol-2-yl)-1,4-dihydropyrimidin-4-one]",0.01 to 10 nM

# Same assay, conditions: Table 2; HEK293 cells stably expressing human APJ receptor; read-out: hAPJ cAMP EC50 Potency range
row,Compound,EC50
1,"CCCCc1nc(O)c(-c2nnc(Cc3csc(C)n3)o2)c(=O)n1C(C)c1cccnc1 (racemic) [Example 124, 2-butyl-6-hydroxy-5-{5-[(2-methyl-1,3-thiazol-4-yl)methyl]-1,3,4-oxadiazol-2-yl}-3-[1-(pyridin-3-yl)ethyl]-3,4-dihydropyrimidin-4-one]",100 to 300 nM
